Measurements as given in patent US6605469B1, “Nucleic acid molecule encoding a cytochrome P-450 hydroxylase in brassinosteroid biosynthesis in plants” (Korea Kumho Petrochemical Co., Ltd., priority 2000, dated 2003).

Columns and labels:
[1] = system: anti-sense pra2 transgenic plants; assay: Complementation of dark-grown anti-sense pra2 transgenic plants with phytohormones and BR intermediates (hypocotyl length); type: in vivo, Nicotiana tabacum; details: for stimulatory effect on hypocotyls as % of the BL effect / rescue of the dwarfish hypocotyls in BR feeding experiment: anti-sense pra2 transgenic plants grown 5 days in complete darkness; for stimulatory effect on hypocotyls as % of the BL effect: 6-OHCS 10^-8 M, 6-deoxoCS 10^-8 M; for rescue of the dwarfish hypocotyls in BR feeding experiment: CS 10^-8 M
Protocol: Seeds of Nicotiana tabacum (Petit Havana SR1) were germinated and grown in sterile condition at 25° C. with a 16-hour photoperiod. The Arabidopsis thaliana ecotype Columbia (Col-0) was germinated and grown on 0.5×Murashige and Skoog medium containing 1% agar and Suc. All Arabidopsis cultures were maintained in a controlled environment culture room at 22° C. with the humidity of 70% and the photoperiod of 12 hours. Feeding experiments were also performed in the same culture conditions.
Plant growth regulators tested were BR, GA, auxin, cytokinine, abscisic acid, and salicylic acid. The BR hormones included the most oxidized brassinolide (BL, 10^−8 M) and various intermediates, such as campestanol (CN, 10^−6 M), 6-oxocampestanol (6-oxoCN, 10^−6 M), 6-deoxocathasterone (6-deoxoCT, 10^−6 M), cathasterone (CT, 10^−6 M), 6-deoxoteasterone (6-deoxoTE, 10^−6 M), teasterone (TE, 10^−6 M), 6-deoxotyphasterol (6-deoxoTY, 10^−7 M), typhasterol (TY, 10^−7 M), 6-deoxocastasterone (6-deoxoCS, 10^−8 M), 6α-hydroxycastasterone (6-OHCS, 10^−8 M), and castasterone (CS, 10^−8 M). Each BR intermediates were used at the concentrations as indicated in parentheses. […] Plants were germinated and grown in the presence of each BR intermediate for 4-7 days either in the light or in complete darkness. Hypocotyl lengths of 30-50 plants in each treatment were measured and averaged.

[2] = system: DDWF1; assay: Substrate specificity of recombinant DDWF1 with BR intermediates, HPLC analysis; type: biochemical, pea; details: reaction mixtures analyzed on HPLC
Protocol: For HPLC analysis, BR intermediates were incubated with the DDWF1 as with testosterone, and the mixture was analyzed on the Waters 626 LC System and Photodiode Array Detector (Waters, Milford, Mass.). The reverse-phase Supelcosil LC-18 (250×4.6 mm, Supelco, Pa., USA) was used at a flow rate of 2 ml/min. The solvents used were 45% acetonitrile for the first 20 min, a gradient of 45% to 100% for the next 20 min, and pure acetonitrile for the last 10 min.

[3] = system: DDWF1; assay: DDWF1 activity assay with [4-14C]testosterone, TLC analysis; type: biochemical, pea; details: N-terminal truncated recombinant DDWF1
Protocol: Forty μl of the [4-^14C]testosterone (Amersham-Pharmacia, Cat. No. CFA129, 193 μCi/mg) was aliquoted, and the solvent was evaporated under gentle stream of N2 gas. Yeast microsomal fractions were prepared as described (Pompon et al., 1996). Thirty μg of microsomal fraction, 5 μg of Pra2 protein, and various amounts of the recombinant DDWF1 were used for each reaction, each with 175 μl of the reaction buffer (1M HEPES, pH 7.4, 0.1 mM EDTA, 0.5 mM GTP, 10 mM MgCl2). The mixture was transferred to the tube containing the lyophilized testosterone and incubated for 10 min at 37° C. Twenty-five μl of NADPH solution, prepared in the same reaction buffer, was then added to the mixture to a final concentration of 1 mM. The total mixture was further incubated for 30 min at 37° C. and terminated by adding 1 ml of ethyl acetate and vortexing for 30 sec. After centrifugation for 4 min at 15000×g, the upper layer was recovered and evaporated in chemical hood overnight. The dry pellet was dissolved in 20 μl of ethyl acetate, spotted on TLC on Silicagel 60 F254 (20×20 cm, Merck, Darmstadt, Germany), and developed in dichloromethane/acetone (4:1 by volume) and then in chloroform/ethyl acetate/ethanol (4:1:0.7 by volume) as described (Waxman, 1991).

[4] = molecular target: Q79L Pra2-GST fusion protein (constitutively active form) [GST: P08515]
[5] = molecular target: T34N Pra2-GST fusion protein (dominant negative form) [GST: P08515]
[6] = molecular target: wild type Pra2-GST fusion protein [GST: P08515]

CC(C)[C@H](C)[C@@H](O)[C@H](O)[C@@H](C)[C@H]1CC[C@H]2[C@@H]3C[C@H](O)[C@H]4C[C@H](O)[C@H](O)C[C@]4(C)[C@H]3CC[C@]12C [6-OHCS, 6α-hydroxycastasterone]
stimulatory effect on hypocotyls as % of the BL effect [1]: about 50%

CC(C)[C@H](C)[C@@H](O)[C@H](O)[C@@H](C)[C@H]1CC[C@H]2[C@@H]3CC[C@H]4C[C@H](O)[C@H](O)C[C@]4(C)[C@H]3CC[C@]12C [6-deoxoCS, 6-deoxocastasterone]
stimulatory effect on hypocotyls as % of the BL effect [1]: ~60%

CC(C)[C@H](C)[C@@H](O)[C@H](O)[C@@H](C)[C@H]1CC[C@H]2[C@@H]3COC(=O)[C@H]4C[C@H](O)[C@H](O)C[C@]4(C)[C@H]3CC[C@]12C [BL, brassinolide]
rescue of the dwarfish hypocotyls in BR feeding experiment ([1]; BL 10^-8 M): completely rescued
rescue of the dark-specific dwarfish hypocotyls ([1]; anti-sense pra2 transgenic tobacco grown in the dark, phytohormones at physiological concentrations, BL 10^-8 M): completely rescued
growth kinetics of transgenic versus control seedlings in the presence of BL ([1]; dark-grown seedlings, hypocotyl length over time, FIG. 4C): became similar
BL effect on transgenic plants grown in the light ([1]; transgenic plants grown in the light): No BL effects

CC(C)[C@H](C)[C@@H](O)[C@H](O)[C@@H](C)[C@H]1CC[C@H]2[C@@H]3CC(=O)[C@H]4C[C@H](O)[C@H](O)C[C@]4(C)[C@H]3CC[C@]12C [CS, castasterone]
rescue of the dwarfish hypocotyls in BR feeding experiment ([1]; BL 10^-8 M): completely rescued
conversion by recombinant DDWF1 (substrate specificity) [2]: not the substrate

CC(C)[C@H](C)[C@@H](O)[C@H](O)[C@@H](C)[C@H]1CC[C@H]2[C@@H]3CC(=O)[C@H]4C[C@H](O)CC[C@]4(C)[C@H]3CC[C@]12C [TY, typhasterol]
conversion by recombinant DDWF1 (substrate specificity) [2]: converted to CS

C[C@]12CC[C@H]3[C@@H](CCC4=CC(=O)CC[C@@]43C)[C@@H]1CC[C@@H]2O [Testosterone]
substrate for DDWF1 [3]: not the substrate

gibberellins [GA]
stimulatory effect on hypocotyls relative to that by BL ([1]; anti-sense pra2 transgenic tobacco grown in the dark, phytohormones at physiological concentrations): 20-30%

B1: recombinant N-terminal truncated DDWF1, soluble form expressed in E. coli (protein)
chain: MALQVLTLPSWVTLFTTFAILLLFSRRLRRRQYNLPPGPKPWPIIGNFNLIGTLPHQSLHGLTQKYGPIMHLWFGSKRVVVGSTVEMAKAFLKTHDATLAGRPKFSAGKYTTYNYSDITWSQYGPYWRQARRMCLLELFSAKRLESYEYIRKQELHVFLHELFDSRNKTILLKDHLSSLSLNVISRMVLGRKYLEKVENSIISPDEFKNMLDELFLLNGILNIGDFIPWIHFLDFQGYVKRMKVLSKKFDGFMEHVLEEHIERRKGVKDYVAKDMVDVLLQLAEDPDLEVKLERHGVKAFTQDLIAGGTESSAVTVEWAISELIRKPEIFKKATEELDRVIGRERWVEEKDIANLPYVYAIAKETMRLHPVAPMLVPREAREDCNINGYDIPKGSLILVNTWTIARDSNVWDNPNEFMPERFLGKDIDVKGHDYELLPFGAGRRMCPGYPLGIKVIQSSLANLLHGFNWRLSDDVKKEDLNMEEIFGLSTPKKIHPG
conversion efficiency (DDWF1 hydroxylase activity on a testosterone intermediate, TLC) [4]: the conversion efficiency was slightly higher with the wild type and Q79L than with the T34N
conversion efficiency (DDWF1 hydroxylase activity on a testosterone intermediate, TLC) [5]: the conversion efficiency was slightly higher with the wild type and Q79L than with the T34N
conversion efficiency (DDWF1 hydroxylase activity on a testosterone intermediate, TLC) [6]: the conversion efficiency was slightly higher with the wild type and Q79L than with the T34N
